Data: patent US20040229246A1, “Diagnostic markers for therapeutic treatment” (Can-Fite Biopharam Ltd., priority 2002, published 2004)

Legend:
A3AR [1] = molecular target: T1, A3AR (Mus musculus, UniProt Q61618); assay: Western blot analysis of A3AR protein in B16-F10 melanoma cells; type: cell-based; settings: B16-F10 melanoma cells, Western blot
T1 construct: endogenous in cells; host or cells: B16-F10 melanoma cells
T1 sequence (Q61618 1-319): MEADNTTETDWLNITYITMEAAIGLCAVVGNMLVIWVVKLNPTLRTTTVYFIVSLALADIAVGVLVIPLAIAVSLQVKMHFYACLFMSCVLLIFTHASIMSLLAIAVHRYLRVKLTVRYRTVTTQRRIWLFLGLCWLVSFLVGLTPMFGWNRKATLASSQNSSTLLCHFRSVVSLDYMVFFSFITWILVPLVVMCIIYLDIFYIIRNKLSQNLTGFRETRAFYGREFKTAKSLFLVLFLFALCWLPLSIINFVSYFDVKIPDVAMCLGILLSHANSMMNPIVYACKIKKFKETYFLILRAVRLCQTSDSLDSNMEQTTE
Experimental: (§1) To detect the level of expression of the A3AR proteins Western blot analysis was performed. Cells were incubated in the presence and absence of IB-MECA (10 nM), MRS1523 (10 nM), Forskolin (50 nM), 8 Br cAMP (100 μM), Cycloheximide 20 μg/ml or MG 132 (20 nM) for different time periods at 37° C. Cells were then rinsed with ice-cold PBS and transferred to ice-cold lysis buffer (TNN buffer, 50 mM Tris buffer pH=7.5, 150 mM NaCl, NP 40). In the experiment examining the effect of trypsin on A3AR expression, cells were incubated with 0.5 ml of 0.25% trypsin for 5 minutes. The trypsinized cells were washed again with ice-cold PBS, harvested by centrifugation and subjected to lysis in TNN buffer. Cell debris was removed by centrifugation for 10 minutes, at 7500 xg. The supernatant was utilized for Western Blot analysis. Protein concentrations were determined using the Bio-Rad protein assay dye reagent. Equal amounts of the sample (50 μg) were separated by SDS-PAGE, using 12% polyacrylamide gels. The resolved proteins were then electroblotted onto nitrocellulose membranes (Schleicher & Schuell, Keene, NH, USA). Membranes were blocked with 1% bovine serum albumin and incubated with the desired primary antibody (dilution 1:1000) for 24 hours at 4° C. Blots were then washed and incubated with a secondary antibody for 1 hour at room temperature. Bands were recorded using BCIP/NBT color development kit (Promega, Madison, W1, USA). Data presented in the different figures are representative of at least three different experiments.
Receptor internalization by treating melanoma cells with trypsin, which removes the cell surface receptor, was examined.
Time dependent expression of A3AR in the melanoma cells was examined by Western blot analysis.

A3AR [2] = assay: Northern blot analysis of A3AR mRNA in B16-F10 melanoma cells; type: cell-based; settings: B16-F10 melanoma cells treated with IB-MECA
Experimental: Total RNA was isolated from B16-F10 melanoma cells treated with IB-MECA, utilizing Tri-reagent (Sigma, Saint Louis). The samples were then subjected twice to phenol:chloroform extraction and washed with chloroform. RNA was precipitated with sodium acetate/ethanol following washing with ethanol, then denatured, separated (25 μg per lane) in 1.1% formaldehyde agarose gels and transferred to Hybond-N membrane. The 390 bp EcoRI fragment from A3AR cDNA clone of mouse (TAA3I.S), kindly supplied by Dr Kathia Ravid, was prepared by random-primed synthesis. Probes were used in RNA blot analysis at a hybridization temperature of 42° C. in the presence of 50% formamide.

B16-F10 melanoma = B16-F10 melanoma tumor growth in mice; type: in vivo; settings: 100 μg/kg orally once daily, 15 days, p<0.0001
Experimental: (§2) Melanoma: C57BL/6J, male mice (Harlan Laboratories, Jerusalem, Israel) aged 2 months, weighing an average of 25 g were used. B16-F10 (2.5×105) melanoma cells were subcutaneously (s.c.) injected to the flank of the mice. IB-MECA at a dose of 100 μg/kg body weight was administered orally once daily, starting 24 hours after tumor cells' inoculation. The control group was treated daily, orally, with the vehicle only. Mice were sacrificed after 15 days, tumor lesions were excise and protein was extracted for measurements as described above. The tumor size (width (W) and length (L)) was measured with a caliber and calculated according to the following formula: Tumor Size =(W)2xL/2. Each group contained 15 mice and the study was repeated 3 times.
Consequently, an increase in the total GSK-3β level was noted, thereby leading to a decrease in the level of β-catenin.

[3] = system: PKA, PKB/Akt, GSK-3β, β-catenin, cyclin D1, c-myc, NF-κB; assay: Western blot of cell growth regulatory proteins in B16-F10 melanoma tumor lesions; type: in vivo, mice
Experimental: as §1, §2

[4] = system: A3AR, NF-κB, c-myc, cyclin D1; assay: Immunoblot analysis of proteins extracted from prostate carcinoma (PC-3) cells; type: cell-based
Experimental: as §1
The effect of IB-MECA on key proteins downstream to A3AR activation in prostate carcinoma cells was also examined in a manner similar to that performed with melanoma cells (see above).

[5] = system: PKAc, PKB/Akt, β-catenin, c-myc, cyclin D1, NF-κB, GSK-3β; assay: Immunoblot analysis of protein extracts of HCT-116 human colon carcinoma cells; type: cell-based; settings: HCT-116 cells, compared to control
Experimental: as §1
The effect of IB-MECA on key proteins downstream to A3AR activation in HCT-116 human colon carcinoma cells was also examined in a manner similar to that performed with melanoma cells (see above). FIG. 7 presents Immunoblot analysis of protein extracts derived from colon carcinoma cell, wherein treatment with IB-MECA (right lane) caused down-regulation of PKAc, PKB/Akt, β-catenin, c-myc and cyclin D1 and NF-κB and up-regulation of GSK-3β expression level as compared to control (left lane).

time dependent expression of A3AR (A3AR [1]; different time points): sinusoidal pattern
A3AR protein level (A3AR [1]; versus untreated cells): down-regulated
Compound: CNC(=O)[C@H]1O[C@@H](n2cnc3c(NCc4cccc(I)c4)ncnc32)[C@H](O)[C@@H]1O [IB-MECA, 1-deoxy-1-[6[[(3-iodophenyl)methyl]amino]-9H-purine-9-yl]-N-methyl-β-D-ribofura-nuronaminde]
A3AR mRNA expression level (A3AR [2]): increase
inhibition of B16-F10 melanoma tumor growth (B16-F10 melanoma): 76%
NF-κB level [3]: down-regulated
PKA level [3]: decreased
PKB/Akt level [3]: decreased
c-myc level [3]: down-regulated
cyclin D1 level [3]: down-regulated
total GSK-3β level [3]: increase
β-catenin level [3]: decrease
A3AR level [4]: down-regulation
NF-κB level [4]: down-regulation
c-myc level [4]: down-regulation
cyclin D1 level [4]: down-regulation
GSK-3β expression level [5]: up-regulation
NF-κB level [5]: down-regulation
PKAc level [5]: down-regulation
PKB/Akt level [5]: down-regulation
c-myc level [5]: down-regulation
cyclin D1 level [5]: down-regulation
β-catenin level [5]: down-regulation
